How the values were obtained:
[1] = test system: murine myocytes (C2C12); assay: β-oxidation of fatty acids in murine myocytes (tritiated palmitate); assay type: cell-based; settings: 24 h pretreatment
Excerpt: The more the induction of the β-oxidation of fatty acids is increased, the greater the stimulating action of the compound according to the invention on metabolism in the muscle cells.
The objective is to measure the amount of tritiated water formed during the mitochondrial oxidation of ^3H-labeled fatty acids.
The C2C12 murine cell line (obtained from ECACC) is cultivated in DMEM medium (Gibco; 41965-039) with addition of 1% L-glutamine (Gibco; 25030), 1% penicillin/streptomycin (VWR; BWSTL0022/100) and 10% decomplemented fetal calf serum (FCS. Gibco; 10270-106).
(§1) The cells are seeded on 48-well plates at a density of 25·10^3 cells/well. At confluence, the medium is replaced with a differentiating medium (basal medium with addition of 2% of horse serum (Gibco; 26050-088)), then incubated at 37° C. and 5% CO2 for 4 days in order to differentiate them to myocytes.
After 4 days of differentiation, the cells are treated with the compounds according to the invention added to the culture medium for differentiation. Compound 2 was tested by dose effect from 0.01 to 1 μM, and the others were tested at a dose of 1 μM. The compounds according to the invention are dissolved in dimethylsulfoxide (DMSO, Sigma; D5879). The cells are treated for 24 h at 37° C., 5% CO2. The effect of the compounds according to the invention is compared with the effect of DMSO alone. […]
Secondly, 50 μL of precipitated supernatant is evaporated for 2 days, then the residual tritium is measured in order to evaluate the amount of tritiated palmitate not converted to water.
A standard range is prepared by successive dilutions of the tritiated palmitate/BSA complex in order to determine the amount of palmitate converted to water. For each time of the kinetics, 1 h, 2 h and 3 h, the amount in nanomoles of oxidized palmitate is calculated by linear regression. The areas under the curve are determined for each set of conditions and the results are normalized with DMSO. […]

[2] = test system: target genes of PPARδ in murine myocytes (C2C12); assay: Expression of target genes of PPARδ (PDK4, CPT1b, UCP2, UCP3) in murine myocytes, quantitative RT-PCR; assay type: cell-based; settings: murine myocytes in vitro
Excerpt: It is established that regulation of the expression of these genes is directly controlled by PPARδ in this cell type. The more the expression of the genes is increased, the greater the stimulating action of the compound according to the invention on metabolism in the muscle cells.
Cells from the murine cell line C2C12 (obtained from ECACC) are cultivated in DMEM medium (Gibco; 41965-039) with addition of 1% L-glutamine (Gibco; 25030), 1% of penicillin/streptomycin (VWR; BWSTL0022/100) and 10% decomplemented fetal calf serum (FCS. Gibco; 10270-106).
as §1, with “24-well” for “48-well”, “50·10^3” for “25·10^3”
After 5 days of differentiation, the cells are put in a deprivation medium (basal medium without serum) for 6 hours. The cells are then treated with the compounds according to the invention in the deprivation medium. Compounds 2, 4, 7, 11, 39, 40, 46, 49 and 72 were in dose effect, corresponding to 1×, 10× and 100× their EC50 PPARδ. The compounds according to the invention were dissolved in dimethylsulfoxide (DMSO, Sigma; D5879). The cells were treated for 24 h at 37° C., 5% CO2. The effect of the compounds according to the invention was compared with the effect of DMSO alone.
After treatment, the total RNA is extracted from the cells using the NucleoSpine® 96 RNA kit (Macherey Nagel, Hoerdt, France) following the manufacturer's instructions.
1 μg of total RNA (quantified based on the UV spectrophotometer reading) was then reverse-transcribed to complementary DNA by reaction for 1 hour at 37° C. in a total volume of 30 μl containing buffer 1× (Invitrogen), 1.5 mM of DTT, 0.18 mM of dNTPs (Promega), 200 ng of pdN6 (Amersham), 30 U of RNase inhibitor (Promega) and 1 μl of MMLV-RT (Invitrogen).
The quantitative PCR experiments were carried out using the MyiQ Single-Color Real-Time PCR Detection System (Biorad, Marnes-la-Coquette, France) and were performed using the iQ SYBR Green Supermix kit following the supplier's recommendations, in 96-well plates, on 5 μl of diluted reverse-transcription reaction mixtures with a hybridization temperature of 60° C. Primer pairs specific to the PDK4, CPT1b, UCP2 and UCP3 genes under investigation were used:
The amount of fluorescence emitted is directly proportional to the amount of complementary DNA present at the start of the reaction and amplified during PCR. For each target investigated, a range is produced by successive dilutions of a pool constituted of a few microliters of various reverse-transcription reaction mixtures. The relative expression levels of each target are thus determined using the efficacy curves obtained with the points in the range.
The levels of expression of the genes of interest were then normalized relative to the level of expression of the reference gene 36B4 (whose specific primers are: sense primer: 5′-[…]-3′ (SEQ ID No. 19) and antisense primer: 5′-[…]-3′ (SEQ ID No. 20)). The induction factor, i.e. the ratio of the relative signal (induced by the compound according to the invention) to the mean of the relative values of the control group, was then calculated. The higher this factor, the greater the activating character of the compounds according to the invention with respect to gene expression. The final result is represented as the mean of the induction values in each experimental group.

| SMILES | β-oxidation of fatty acids in murine myocytes ([1]; at 1 μm) | melting point | expression of genes involved in carbohydrate and lipid metabolism and in thermoregulation [2] | β-oxidation of fatty acids in murine myocytes ([1]; in dose effect starting from 0.01 μM) |
| --- | --- | --- | --- | --- |
| CC(C)(Oc1ccc(CCC(=O)c2cc(-c3ccc(C(F)(F)F)cc3)cs2)c(Cl)c1Cl)C(=O)O [Compound 11, 2-(2,3-dichloro-4-(3-oxo-3-(4-(4-(trifluoromethyl)phenyl)thien-2-yl)propyl)phenoxy)-2-methylpropanoic acid] | significant increase | 99 to 101 °C | stimulating effects | – |
| CC(C)(Oc1ccc(CCC(OCc2ccccc2)c2ccc(-c3ccc(C(F)(F)F)cc3)s2)c(Cl)c1Cl)C(=O)O (centres unmarked) [Compound 7, 2-(4-(3-(benzyloxy)-3-(5-(4-(trifluoromethyl)phenyl)thien-2-yl)propyl)-2,3-dichlorophenoxy)-2-methylpropanoic acid] | – | 46 to 48 °C | stimulating effects | – |
| CC(C)(Oc1ccc(CCC(O)c2ccc(-c3ccc(C(F)(F)F)cc3)s2)c(Cl)c1Cl)C(=O)O (centres unmarked) [Compound 4, 2-(2,3-dichloro-4-(3-hydroxy-3-(5-(4-(trifluoromethyl)phenyl)thien-2-yl)propyl)phenoxy)-2-methylpropanoic acid] | significant increase | 54 to 56 °C | stimulating effects | – |
| CC(C)(Oc1ccc(CCC(=O)c2ccc(-c3ccc(C(F)(F)F)cc3)s2)c(Cl)c1Cl)C(=O)O [Compound 2, 2-(2,3-dichloro-4-(3-oxo-3-(5-(4-(trifluoromethyl)phenyl)thien-2-yl)propyl)phenoxy)-2-methylpropanoic acid] | – | 153 to 154 °C | stimulating effects | significant increase |

— US8088819B2, “Derivatives of substituted 3-phenyl-1-(phenylthienyl)propan-1-ones and of 3-phenyl-1-(phenylfuranyl) propan-1-ones, preparation and use” (priority 2006, dated 2012)
